One data set deals with mock-infected MT-4 cells. The data set can be described thus: Cytotoxicity based on viability of mock-infected host cells (MTT method). The class given is cell-based. The method, then: (§1) MT-4 cells were suspended in culture media at 2.5×10^5 cells/ml and infected with 1000 CCID50 (50% cell culture infective dose) of HIV. Immediately after virus infection, 100 μl of cell suspension was brought into each well of a flat-bottomed microtitray containing various concentrations of the test compounds. After 4 or 5 days incubation at 37° C., efficacy of the compounds was determined by the MTT method. Cytotoxicity of the compounds was assessed in parallel with their antiviral activity, based on viability of mock-infected host cells as determined by the MTT method.
(In general: Tetrazolium assays rely on reduction of a dye to a coloured formazan, in cell work by metabolically active cells.)

The test system of a further data set is HIV. The data set can be described thus: microbe, parasite or virus in culture. It is filed as cell-based. The method, then: Anti-HIV activity tests in vitro of the compounds according to the present invention were performed as described in J. Med. Chem, 34, 357, 1991. Inhibition by the compounds of virus-induced cytotoxic effect in MT-4 cells was measured as follows.
as §1

Setting [1] is: mock-infected MT-4 cells, MTT method, 4 or 5 days at 37° C.
Setting [2] is: HIV-infected MT-4 cells, MTT method, 4 or 5 days at 37° C.
Where [3] appears, read: Human immunodeficiency virus 1, MT4, HIV-infected MT-4 cells, MTT method, 4 or 5 days at 37° C., read-out: ED50 (the source's name).
[4] abbreviates: Human immunodeficiency virus 1, MT4, read-out: ED50.

In brackets after ≈: the same amount, converted by molar mass. Like-named read-outs stand apart in the source and are kept apart here.

Take “1-(2-Naphthalenemethyl)-5-ethyl-6-(3,5-dimethylbenzoyl)-2,4-pyrimidinedione [Example 95]”: the CD50 with mock-infected MT-4 cells (setting [1]) was found to be 16.50 µg/mL. In the data set on HIV (setting [2]), the ED50 was found to be 0.013 µg/mL.
As for “1-(2-Naphthalenemethyl)-5-ethyl-6-(3,5-dimethylphenoxy)-2,4-pyrimidinedione [Example 93]”, the CD50 in the data set on mock-infected MT-4 cells (setting [1]) worked out at 83.22 µg/mL. The ED50 with HIV (setting [2]) stood at 0.013 µg/mL.
Taken in the same sequence, the figures for “1-(2-Naphthalenemethyl)-5-ethyl-6-(3,5-dimethylphenyl)thio-2,4-pyrimidinedione [Example 91]” were 1.27 µg/mL and 0.004 µg/mL.
On to “1-(2-Naphthalenemethyl)-5-isopropyl-6-(3,5-dimethyl-benzoyl)-2,4-pyrimidinedione [Example 96]”, for which the CD50 in the data set on mock-infected MT-4 cells (setting [1]) worked out at 9.64 µg/mL. In the data set with HIV (setting [2]), this compound registered an ED50 of 0.014 µg/mL.
“1-(2-Naphthalenemethyl)-5-isopropyl-6-(3,5-dimethyl-phenyl)thio-2,4-pyrimidinedione [Example 92]” came in with a CD50 in the data set with mock-infected MT-4 cells (setting [1]) of 8.93 µg/mL. In the data set with HIV (setting [2]), this compound returned an ED50 of 0.013 µg/mL.
Consider “1-(Benzoxazol-2-ylmethyl)-5-isopropyl-6-(3,5-dimethyl-benzoyl-2,4-pyrimidinedione [Example 150]”, for which the CD50 in the data set on mock-infected MT-4 cells (setting [1]) worked out at 7.09 µg/mL. The ED50 in the data set on HIV (setting [2]) is 0.0031 µg/mL.
As for “1-(Phenacyl)-5-ethyl-6-(3,5-dimethylbenzoyl)-2,425 pyrimidinedione [Example 167]”, in the data set on mock-infected MT-4 cells, the CD50 is 43.31 µg/mL. Further, the ED50 in the data set on HIV (setting [2]) amounted to 0.0569 µg/mL.
For “1-(Phenacyl)-5-ethyl-6-(3,5-dimethylphenoxy)-2,415 pyrimidinedione [Example 165]”, the CD50 in the data set with mock-infected MT-4 cells stood at 58.11 µg/mL. The same compound returned an ED50 with HIV (setting [2]) greater than 58.11 µg/mL.
In turn, “1-(Phenacyl)-5-isopropyl-6-(3,5-dimethylbenzoyl)-2,430 pyrimidinedione [Example 168]” registered a CD50 in the data set with mock-infected MT-4 cells of 5.48 µg/mL. For the same compound, the ED50 in the data set on HIV (setting [2]) was 0.0174 µg/mL.
The compound “1-(Phenacyl)-5-isopropyl-6-(3,5-dimethylphenoxy)-2,420 pyrimidinedione [Example 166]” registered a CD50 with mock-infected MT-4 cells greater than 100.00 µg/mL. Also, in the data set on HIV (setting [2]), the ED50 was determined as 0.7562 µg/mL.
For `Cc1cn([C@H]2C[C@H](N=[N+]=[N-])[C@@H](CO)O2)c(=O)[nH]c1=O` [AZT], the CD50 in the data set on mock-infected MT-4 cells (setting [1]) turned out to be 0.70 µg/mL. Also, the ED50 in the data set on HIV (setting [2]) turned out to be 0.0015 µg/mL (≈ 0.00561 µM).
Turning to `Cc1cc(C)cc(Sc2c(C(C)C)c(=O)[nH]c(=O)n2CC2CC2)c1` [Example 2, 1-(Cyclopropyl)methyl-5-isopropyl-6-(3,5-dimethylphenyl)thio-2,4-pyrimidinedione], the CD50 with mock-infected MT-4 cells (setting [1]) was 12.43 µg/mL. In addition, the EC50 in the data set on HIV (setting [3]) was less than 0.0002 µg/mL.
Taken in the same sequence, the figures for `CCc1c(Oc2cc(C)cc(C)c2)n(CC2CC2)c(=O)[nH]c1=O` [Example 3, 1-(Cyclopropyl)methyl-5-ethyl-6-(3,5-dimethylphenoxy)-2,4-pyrimidinedione] were greater than 100.00 µg/mL and 0.011 µg/mL (≈ 0.035 µM).
In the case of `CCc1c(Sc2cc(C)cc(C)c2)n(CC2CCC2)c(=O)[nH]c1=O` [Example 7, 1-(Cyclobutyl)methyl-5-ethyl-6-(3,5-dimethylphenyl)thio-2,4-pyrimidinedione], the CD50 in the data set on mock-infected MT-4 cells (setting [1]) was found to be 11.73 µg/mL. Also, the EC50 in the data set with HIV (setting [3]) is 0.028 µg/mL (≈ 0.0813 µM).
Regarding `Cc1cc(C)cc(Sc2c(C(C)C)c(=O)[nH]c(=O)n2CC2CCC2)c1` [Example 8, 1-(Cyclobutyl)methyl-5-isopropyl-6-(3,5-dimethylphenyl)thio-2,4-pyrimidinedione], the CD50 with mock-infected MT-4 cells (setting [1]) turned out to be 5.9 µg/mL. Further, the EC50 with HIV (setting [3]) was found to be 0.013 µg/mL (≈ 0.0363 µM).
Turning to `CCc1c(Oc2cc(C)cc(C)c2)n(CC2CCC2)c(=O)[nH]c1=O` [Example 9, 1-(Cyclobutyl)methyl-5-ethyl-6-(3,5-dimethylphenoxy)-2,4-pyrimidinedione], the CD50 with mock-infected MT-4 cells (setting [1]) was greater than 100.00 µg/mL. In addition, the EC50 in the data set with HIV (setting [3]) stood at 0.0756 µg/mL (≈ 0.23 µM).
In the same order, the values of `Cc1cc(C)cc(Oc2c(C(C)C)c(=O)[nH]c(=O)n2CC2CCC2)c1` [Example 10, 1-(Cyclobutyl)methyl-5-isopropyl-6-(3,5-dimethylphenoxy)-2,4-pyrimidinedione] are 7.8 µg/mL and 0.0147 µg/mL (≈ 0.0429 µM).
`CCc1c(Sc2cc(C)cc(C)c2)n(CC2CCCCC2)c(=O)[nH]c1=O` [Example 13, 1-(Cyclohexyl)methyl-5-ethyl-6-(3,5-dimethylphenyl)thio-2,4-pyrimidinedione] registered a CD50 with mock-infected MT-4 cells (setting [1]) of 11.10 µg/mL. For the same compound, the EC50 in the data set on HIV (setting [4]) came to 0.27 µg/mL (≈ 0.725 µM).
Taken in the same sequence, the figures for `Cc1cc(C)cc(Sc2c(C(C)C)c(=O)[nH]c(=O)n2CC2CCCCC2)c1` [Example 14, 1-(Cyclohexyl)methyl-5-isopropyl-6-(3,5-dimethylphenyl)thio-2,4-pyrimidinedione] were 6.40 µg/mL and 0.061 µg/mL (≈ 0.158 µM).
In the data set on mock-infected MT-4 cells (setting [1]), `CCc1c(Oc2cc(C)cc(C)c2)n(CC2CCCCC2)c(=O)[nH]c1=O` [Example 15, 1-(Cyclohexyl)methyl-5-ethyl-6-(3,5-dimethylphenoxy)-2,4-pyrimidinedione] registered a CD50 of 9.17 µg/mL. Also, in the data set on HIV (setting [4]), the EC50 is 0.069 µg/mL (≈ 0.194 µM).
Consider `Cc1cc(C)cc(Oc2c(C(C)C)c(=O)[nH]c(=O)n2CC2CCCCC2)c1` [Example 16, 1-(Cyclohexyl)methyl-5-isopropyl-6-(3,5-dimethylphenoxy)-2,4-pyrimidinedione], for which the CD50 in the data set on mock-infected MT-4 cells (setting [1]) is 8.30 µg/mL. For the same compound, in the data set on HIV (setting [4]), the EC50 worked out at 0.065 µg/mL (≈ 0.175 µM).
Regarding `CCc1c(Sc2cc(C)cc(C)c2)n(Cc2ccccc2)c(=O)[nH]c1=O` [Example 19, 1-Benzyl-5-ethyl-6-(3,5-dimethylphenyl)thio-2,4-pyrimidine-dione], the CD50 in the data set on mock-infected MT-4 cells (setting [1]) was 12.59 µg/mL. Besides, the EC50 in the data set on HIV (setting [3]) came out at 0.015 µg/mL (≈ 0.0409 µM).
In the same order, the values of `Cc1cc(C)cc(Sc2c(C(C)C)c(=O)[nH]c(=O)n2Cc2ccccc2)c1` [Example 20, 1-Benzyl-5-isopropyl-6-(3,5-dimethylphenyl)thio-2,4-pyrimidinedione] are 11.30 µg/mL and 0.012 µg/mL (≈ 0.0315 µM).
`CCc1c(Oc2cc(C)cc(C)c2)n(Cc2ccccc2)c(=O)[nH]c1=O` [Example 21, 1-Benzyl-5-ethyl-6-(3,5-dimethylphenoxy)-2,4-pyrimidine-dione] yielded a CD50 in the data set with mock-infected MT-4 cells (setting [1]) of 16.58 µg/mL. The EC50 with HIV (setting [3]) came to 0.036 µg/mL (≈ 0.103 µM).
Taken in the same sequence, the figures for `Cc1cc(C)cc(Oc2c(C(C)C)c(=O)[nH]c(=O)n2Cc2ccccc2)c1` [Example 22, 1-Benzyl-5-isopropyl-6-(3,5-dimethylphenoxy)-2,4-pyrimidinedione] were 25.48 µg/mL and 0.015 µg/mL (≈ 0.0412 µM).
Regarding `Cc1cc(C)cc(C(=O)c2c(C(C)C)c(=O)[nH]c(=O)n2Cc2ccccn2)c1` [Example 114, 1-(Pyridin-2-2-ylmethyl)-5-isopropyl-6-(3,5-dimethyl-benzoyl)-2,4-pyrimidinedione], the CD50 in the data set with mock-infected MT-4 cells (setting [1]) is 24.60 µg/mL. Besides, the ED50 with HIV (setting [2]) stood at 0.0032 µg/mL (≈ 0.00848 µM).
On to `CCc1c(C(=O)c2cc(C)cc(C)c2)n(Cc2cccc(Br)n2)c(=O)[nH]c1=O` [Example 129, 1-(2-Bromopyridib-6-ylmethyl)-5-ethyl-6-(3,5-dimethyl-benzoyl)-2,4-pyrimidinedione], for which the CD50 in the data set on mock-infected MT-4 cells came to 7.44 µg/mL. The same compound had an ED50 in the data set on HIV (setting [2]) of 0.010 µg/mL (≈ 0.0226 µM).
For `CCc1c(Oc2cc(C)cc(C)c2)n(CC2CO2)c(=O)[nH]c1=O` (centres unmarked) [Example 137, 1-(2,3-Epoxypropyl)-5-ethyl-6-(3,5-dimethylphenoxy)-2,4-pyrimidinedione], in the data set on mock-infected MT-4 cells (setting [1]), the CD50 amounted to 40.50 µg/mL. Further, in the data set on HIV (setting [4]), the EC50 is 1.25 µg/mL (≈ 3.95 µM).

The values are drawn from patent US6987114B1, “Antiviral pyrimidinedione derivatives and process for the preparation thereof” (Samjin Pharmaceutical Co., Ltd, priority 1999, dated 2006).
